Read-outs that look alike come from different tables or passages of the source.
Legend:
Assay type in all cases: cell-based
[1] = target: Ba/F3-EGFR-WT cells (BA/F3 wild type EGFR) (Homo sapiens, UniProt P00533); assay: BA/F3 (wild type) proliferation assay, Cell Titer-Glo; settings: Table 7; plated with 10 ng/mL EGF, without IL-3, 48 h; read-out: BA/F3 (wild type) IC50
Protocol: (§1) Plates were incubated at 37° C. for 48 h. Retrovirus was harvested by filtering the media supernatant through a 0.45 μm filter.
(§2) Ba/F3 cells purchased from DSMZ were grown in RPMI+10% FBS+10 ng/mL IL-3 and infected with filtered retroviral supernatant at a 1:2 dilution. Polybrene was added to a concentration of 8 μg/mL, plates were spun for 90 min, and incubated overnight at 37° C. 2 μg/mL puromycin was added to the infected cells 24 h after infection and cells were continually grown in the presence of puromycin and 10 ng/mL IL-3. Following stably expressing Ba/F3 cell lines were generated: Ba/F3-EGFR-WT.
For cell survival assays, Ba/F3 cells were grown to a density of 1-2 million cells per mL, spun down and resuspended in media without IL-3, and replated at a concentration 200,000-500,000 cells per mL. The cells ectopically expressing WT EGFR were plated with 10 ng/mL Millipore Culture grade EGF.
(§3) 24 hours later, cells were plated in 30 μL in a 384 well plate at a concentration of 3200 cells per well for cells assayed in the absence of IL-3. 100 nL of compound was added to each well using a 100 nL pin head, and plates were incubated at 37° C. for 48 h.
(§4) Cell viability was measured by adding 30 μL of Cell Titer-Glo Luminescent Cell Viability Reagent. Plates were sealed with Perkin Elmer Top-Seal, inverted several times to mix, and immediately centrifuged at 1000 rpm for 2 min. Plates were incubated in low light conditions for 8-10 min and luminescence was measured.

[2] = test system: Ba/F3-EGFR-delLREA cells (EGFR del19/delLREA (746-750), E746_A750del); assay: BA/F3 EGFR del19/delLREA (746-750) (E746_A750del) cell survival assay, Cell Titer-Glo
Protocol: as §1
as §2, with “Ba/F3-EGFR-L858R, Ba/F3-EGFR-delLREA, (Ba/F3-vector-control).” for “Ba/F3-EGFR-WT.”
(§5) For cell survival assays, Ba/F3 cells were grown to a density of 1-2 million cells per mL, spun down and resuspended in media without IL-3, and replated at a concentration 200,000-500,000 cells per mL. The cells ectopically expressing pBABEpuro empty vector were plated with 10 ng/mL IL-3.
as §3, with “2 days” for “24 hours”, “50” for “30”, “4000” for “3200”, “absence of IL-3 and 2000 cells per well for cells (pBABE puro empty vector) assayed in the presence” for “absence”
as §4, with “20” for “30”, “Reagent diluted 1:3 in PBS.” for “Reagent.”

Ba/F3-EGFR-L858R cells = Ba/F3-EGFR-L858R cells (Homo sapiens, UniProt P00533, L858R, cells depend on it); assay: BA/F3 EGFR L858R cell survival assay, Cell Titer-Glo; settings: read-out: BA/F3 (EGFR L858R) IC50
Sequence of Ba/F3-EGFR-L858R cells (P00533 whole entry L858R): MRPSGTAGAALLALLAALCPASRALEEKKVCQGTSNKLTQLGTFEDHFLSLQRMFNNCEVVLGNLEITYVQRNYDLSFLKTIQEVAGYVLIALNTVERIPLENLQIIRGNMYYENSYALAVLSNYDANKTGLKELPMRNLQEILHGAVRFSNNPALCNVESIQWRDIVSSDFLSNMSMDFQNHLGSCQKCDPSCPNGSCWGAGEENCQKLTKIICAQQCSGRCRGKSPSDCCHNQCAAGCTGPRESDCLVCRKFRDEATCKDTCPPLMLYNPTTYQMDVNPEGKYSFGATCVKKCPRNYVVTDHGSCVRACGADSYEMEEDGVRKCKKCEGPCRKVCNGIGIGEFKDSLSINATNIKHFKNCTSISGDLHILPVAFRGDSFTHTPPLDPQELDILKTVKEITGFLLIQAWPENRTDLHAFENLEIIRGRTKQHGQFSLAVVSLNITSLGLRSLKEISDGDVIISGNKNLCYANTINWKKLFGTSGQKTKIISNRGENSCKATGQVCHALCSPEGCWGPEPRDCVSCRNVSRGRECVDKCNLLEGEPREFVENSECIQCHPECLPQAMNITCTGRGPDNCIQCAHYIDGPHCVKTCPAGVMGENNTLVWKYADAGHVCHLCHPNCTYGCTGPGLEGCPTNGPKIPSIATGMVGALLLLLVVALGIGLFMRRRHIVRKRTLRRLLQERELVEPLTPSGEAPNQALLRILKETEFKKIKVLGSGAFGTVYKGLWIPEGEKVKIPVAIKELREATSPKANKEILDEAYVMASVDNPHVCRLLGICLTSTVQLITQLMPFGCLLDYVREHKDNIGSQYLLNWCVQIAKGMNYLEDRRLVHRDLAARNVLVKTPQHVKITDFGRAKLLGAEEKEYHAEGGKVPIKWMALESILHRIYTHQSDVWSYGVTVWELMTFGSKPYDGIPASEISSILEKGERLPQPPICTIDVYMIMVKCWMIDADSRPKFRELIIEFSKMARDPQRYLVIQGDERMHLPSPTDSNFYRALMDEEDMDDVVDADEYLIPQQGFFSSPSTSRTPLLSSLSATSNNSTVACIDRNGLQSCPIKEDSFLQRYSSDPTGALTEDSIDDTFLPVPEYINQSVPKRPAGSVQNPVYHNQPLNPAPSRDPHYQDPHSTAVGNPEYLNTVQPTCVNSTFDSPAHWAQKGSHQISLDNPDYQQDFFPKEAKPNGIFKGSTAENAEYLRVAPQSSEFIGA
Protocol: as §1
as §2, with “Ba/F3-EGFR-L858R, Ba/F3-EGFR-delLREA, (Ba/F3-vector-control).” for “Ba/F3-EGFR-WT.”
as §5
as §3, with “2 days” for “24 hours”, “50” for “30”, “4000” for “3200”, “absence of IL-3 and 2000 cells per well for cells (pBABE puro empty vector) assayed in the presence” for “absence”
as §4, with “20” for “30”, “Reagent diluted 1:3 in PBS.” for “Reagent.”

[3] = target: Ba/F3-EGFR-D770_N771 insNPG cells (Homo sapiens, UniProt P00533, INS772GNP, cells depend on it); assay: BA/F3 (insNPG) proliferation, EGFR Exon20 insertion mutation; settings: Table 9; EGFR Exon20 insertion mutations; read-out: BA/F3 (insNPG) IC50
Sequence of Ba/F3-EGFR-D770_N771 insNPG cells (P00533 with tags, fused parts or gaps INS772GNP): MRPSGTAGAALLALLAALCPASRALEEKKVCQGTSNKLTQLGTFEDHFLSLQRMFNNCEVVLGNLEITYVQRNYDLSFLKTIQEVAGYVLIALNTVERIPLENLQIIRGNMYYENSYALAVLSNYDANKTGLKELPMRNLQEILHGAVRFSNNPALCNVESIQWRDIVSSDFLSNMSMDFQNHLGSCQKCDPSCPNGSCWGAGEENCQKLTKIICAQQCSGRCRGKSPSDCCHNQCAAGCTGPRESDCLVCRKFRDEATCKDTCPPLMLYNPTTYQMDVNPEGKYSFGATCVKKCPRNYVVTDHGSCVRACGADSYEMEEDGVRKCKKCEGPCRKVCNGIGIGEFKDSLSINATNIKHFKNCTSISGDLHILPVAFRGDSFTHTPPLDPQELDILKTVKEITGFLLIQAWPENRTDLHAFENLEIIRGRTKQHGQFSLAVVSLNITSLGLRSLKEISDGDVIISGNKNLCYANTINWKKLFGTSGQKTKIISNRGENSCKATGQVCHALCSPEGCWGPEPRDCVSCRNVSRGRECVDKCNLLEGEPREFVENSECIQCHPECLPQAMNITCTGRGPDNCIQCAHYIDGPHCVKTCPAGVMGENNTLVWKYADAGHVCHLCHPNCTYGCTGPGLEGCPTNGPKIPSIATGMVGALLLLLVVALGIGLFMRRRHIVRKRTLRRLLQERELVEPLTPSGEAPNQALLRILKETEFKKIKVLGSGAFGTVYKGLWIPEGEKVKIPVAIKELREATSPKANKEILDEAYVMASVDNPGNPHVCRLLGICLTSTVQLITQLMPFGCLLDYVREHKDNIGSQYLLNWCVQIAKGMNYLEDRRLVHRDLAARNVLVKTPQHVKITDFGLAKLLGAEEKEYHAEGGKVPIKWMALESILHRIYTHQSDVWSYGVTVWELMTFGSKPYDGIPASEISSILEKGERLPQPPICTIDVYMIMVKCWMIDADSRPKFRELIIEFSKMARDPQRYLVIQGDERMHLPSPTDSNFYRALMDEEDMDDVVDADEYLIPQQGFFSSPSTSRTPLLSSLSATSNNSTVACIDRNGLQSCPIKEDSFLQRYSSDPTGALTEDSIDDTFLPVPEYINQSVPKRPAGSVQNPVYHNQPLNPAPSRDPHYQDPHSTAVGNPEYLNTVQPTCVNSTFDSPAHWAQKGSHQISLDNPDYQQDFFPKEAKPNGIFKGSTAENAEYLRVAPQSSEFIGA
Protocol: as §1
as §2, with “Ba/F3-EGFR-V769_D770 insASV, Ba/F3-EGFR-D770_N771 insNPG, Ba/F3-EGFR-N771_P772 insH, Ba/F3-EGFR-H773_V774 insNPH, Ba/F3-EGFR-D770_N771 insSVD C797S, Ba/F3-EGFR-E746_A750del C797S, Ba/F3-EGFR-L858R C797S, Ba/F3-EGFR L861Q and Ba/F3-ERBB2-A775_G776insYVMA (Ba/F3-vector-control).” for “Ba/F3-EGFR-WT.”

[4] = target: Ba/F3-EGFR-V769_D770 insASV cells (Homo sapiens, UniProt P00533, DUP767-769, cells depend on it); assay: BA/F3 (ASV) proliferation, EGFR Exon20 insertion mutation; settings: Table 9; EGFR Exon20 insertion mutations; read-out: BA/F3 (ASV) IC50
Sequence of Ba/F3-EGFR-V769_D770 insASV cells (P00533 with tags, fused parts or gaps DUP767-769): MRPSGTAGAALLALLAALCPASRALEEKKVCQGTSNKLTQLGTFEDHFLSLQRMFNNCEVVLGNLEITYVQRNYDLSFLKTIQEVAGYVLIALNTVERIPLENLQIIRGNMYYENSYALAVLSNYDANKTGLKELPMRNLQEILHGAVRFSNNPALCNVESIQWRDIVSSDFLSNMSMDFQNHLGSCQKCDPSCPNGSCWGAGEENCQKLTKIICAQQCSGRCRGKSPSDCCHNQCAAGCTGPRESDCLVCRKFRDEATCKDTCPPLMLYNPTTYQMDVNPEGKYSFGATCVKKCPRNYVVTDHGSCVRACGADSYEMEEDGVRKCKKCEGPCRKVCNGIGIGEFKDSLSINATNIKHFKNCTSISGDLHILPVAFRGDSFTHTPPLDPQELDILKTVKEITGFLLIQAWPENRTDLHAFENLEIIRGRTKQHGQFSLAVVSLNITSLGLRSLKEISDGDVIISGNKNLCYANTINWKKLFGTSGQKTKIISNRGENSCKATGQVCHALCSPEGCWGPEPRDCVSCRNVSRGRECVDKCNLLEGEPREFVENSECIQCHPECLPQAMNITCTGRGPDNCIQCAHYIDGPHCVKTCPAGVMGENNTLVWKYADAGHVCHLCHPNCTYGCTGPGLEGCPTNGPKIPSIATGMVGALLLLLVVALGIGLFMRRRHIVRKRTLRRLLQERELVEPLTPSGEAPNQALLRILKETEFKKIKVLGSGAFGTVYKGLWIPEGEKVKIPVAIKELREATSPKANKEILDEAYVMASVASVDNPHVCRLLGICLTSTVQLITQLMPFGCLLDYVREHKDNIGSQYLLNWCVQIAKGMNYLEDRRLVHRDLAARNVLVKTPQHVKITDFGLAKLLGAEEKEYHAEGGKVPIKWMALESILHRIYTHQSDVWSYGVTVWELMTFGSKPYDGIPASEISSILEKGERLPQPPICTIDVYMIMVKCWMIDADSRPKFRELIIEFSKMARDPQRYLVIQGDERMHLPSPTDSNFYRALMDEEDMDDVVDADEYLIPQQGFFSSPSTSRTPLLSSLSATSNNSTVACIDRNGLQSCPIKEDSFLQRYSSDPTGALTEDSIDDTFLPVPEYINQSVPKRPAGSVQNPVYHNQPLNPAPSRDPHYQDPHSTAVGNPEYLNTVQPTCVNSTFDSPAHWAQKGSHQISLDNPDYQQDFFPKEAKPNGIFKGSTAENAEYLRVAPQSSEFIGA
Protocol: as §1
as §2, with “Ba/F3-EGFR-V769_D770 insASV, Ba/F3-EGFR-D770_N771 insNPG, Ba/F3-EGFR-N771_P772 insH, Ba/F3-EGFR-H773_V774 insNPH, Ba/F3-EGFR-D770_N771 insSVD C797S, Ba/F3-EGFR-E746_A750del C797S, Ba/F3-EGFR-L858R C797S, Ba/F3-EGFR L861Q and Ba/F3-ERBB2-A775_G776insYVMA (Ba/F3-vector-control).” for “Ba/F3-EGFR-WT.”

Ba/F3-EGFR L861Q cells = assay: BA/F3 (EGFR L861Q) proliferation, uncommon EGFR mutation; settings: Table 10, classical activating and uncommon EGFR mutations
Protocol: as §1
as §2, with “Ba/F3-EGFR-V769_D770 insASV, Ba/F3-EGFR-D770_N771 insNPG, Ba/F3-EGFR-N771_P772 insH, Ba/F3-EGFR-H773_V774 insNPH, Ba/F3-EGFR-D770_N771 insSVD C797S, Ba/F3-EGFR-E746_A750del C797S, Ba/F3-EGFR-L858R C797S, Ba/F3-EGFR L861Q and Ba/F3-ERBB2-A775_G776insYVMA (Ba/F3-vector-control).” for “Ba/F3-EGFR-WT.”

[5] = test system: Ba/F3-EGFR-D770_N771 insSVD C797S cells; assay: BA/F3 (EGFR D770_N771 insSVD C797S) proliferation, acquired resistance; settings: Ba/F3 EGFR-D770-N771ins_SVD; Table 11; acquired resistance space
Protocol: as §1
as §2, with “Ba/F3-EGFR-V769_D770 insASV, Ba/F3-EGFR-D770_N771 insNPG, Ba/F3-EGFR-N771_P772 insH, Ba/F3-EGFR-H773_V774 insNPH, Ba/F3-EGFR-D770_N771 insSVD C797S, Ba/F3-EGFR-E746_A750del C797S, Ba/F3-EGFR-L858R C797S, Ba/F3-EGFR L861Q and Ba/F3-ERBB2-A775_G776insYVMA (Ba/F3-vector-control).” for “Ba/F3-EGFR-WT.”

[6] = test system: Ba/F3-EGFR-E746_A750del C797S cells; assay: BA/F3 (EGFR E746_A750del C797S) proliferation, acquired resistance; settings: Table 11, acquired resistance space
Protocol: as §1
as §2, with “Ba/F3-EGFR-V769_D770 insASV, Ba/F3-EGFR-D770_N771 insNPG, Ba/F3-EGFR-N771_P772 insH, Ba/F3-EGFR-H773_V774 insNPH, Ba/F3-EGFR-D770_N771 insSVD C797S, Ba/F3-EGFR-E746_A750del C797S, Ba/F3-EGFR-L858R C797S, Ba/F3-EGFR L861Q and Ba/F3-ERBB2-A775_G776insYVMA (Ba/F3-vector-control).” for “Ba/F3-EGFR-WT.”

[7] = test system: Ba/F3-EGFR-L858R C797S cells; assay: BA/F3 (EGFR L858R C797S) proliferation, acquired resistance; settings: Table 11, acquired resistance space
Protocol: as §1
as §2, with “Ba/F3-EGFR-V769_D770 insASV, Ba/F3-EGFR-D770_N771 insNPG, Ba/F3-EGFR-N771_P772 insH, Ba/F3-EGFR-H773_V774 insNPH, Ba/F3-EGFR-D770_N771 insSVD C797S, Ba/F3-EGFR-E746_A750del C797S, Ba/F3-EGFR-L858R C797S, Ba/F3-EGFR L861Q and Ba/F3-ERBB2-A775_G776insYVMA (Ba/F3-vector-control).” for “Ba/F3-EGFR-WT.”

[8] = target: Ba/F3-ERBB2-A775_G776insYVMA cells (Homo sapiens, UniProt P04626, DUP772-775, cells depend on it); assay: BA/F3 (ERBB2 A775_G776 insYVMA) proliferation; settings: Table 12; read-out: BA/F3 (ERBB2 A775_G776 insYVMA) IC50
Sequence of Ba/F3-ERBB2-A775_G776insYVMA cells (P04626 with tags, fused parts or gaps DUP772-775): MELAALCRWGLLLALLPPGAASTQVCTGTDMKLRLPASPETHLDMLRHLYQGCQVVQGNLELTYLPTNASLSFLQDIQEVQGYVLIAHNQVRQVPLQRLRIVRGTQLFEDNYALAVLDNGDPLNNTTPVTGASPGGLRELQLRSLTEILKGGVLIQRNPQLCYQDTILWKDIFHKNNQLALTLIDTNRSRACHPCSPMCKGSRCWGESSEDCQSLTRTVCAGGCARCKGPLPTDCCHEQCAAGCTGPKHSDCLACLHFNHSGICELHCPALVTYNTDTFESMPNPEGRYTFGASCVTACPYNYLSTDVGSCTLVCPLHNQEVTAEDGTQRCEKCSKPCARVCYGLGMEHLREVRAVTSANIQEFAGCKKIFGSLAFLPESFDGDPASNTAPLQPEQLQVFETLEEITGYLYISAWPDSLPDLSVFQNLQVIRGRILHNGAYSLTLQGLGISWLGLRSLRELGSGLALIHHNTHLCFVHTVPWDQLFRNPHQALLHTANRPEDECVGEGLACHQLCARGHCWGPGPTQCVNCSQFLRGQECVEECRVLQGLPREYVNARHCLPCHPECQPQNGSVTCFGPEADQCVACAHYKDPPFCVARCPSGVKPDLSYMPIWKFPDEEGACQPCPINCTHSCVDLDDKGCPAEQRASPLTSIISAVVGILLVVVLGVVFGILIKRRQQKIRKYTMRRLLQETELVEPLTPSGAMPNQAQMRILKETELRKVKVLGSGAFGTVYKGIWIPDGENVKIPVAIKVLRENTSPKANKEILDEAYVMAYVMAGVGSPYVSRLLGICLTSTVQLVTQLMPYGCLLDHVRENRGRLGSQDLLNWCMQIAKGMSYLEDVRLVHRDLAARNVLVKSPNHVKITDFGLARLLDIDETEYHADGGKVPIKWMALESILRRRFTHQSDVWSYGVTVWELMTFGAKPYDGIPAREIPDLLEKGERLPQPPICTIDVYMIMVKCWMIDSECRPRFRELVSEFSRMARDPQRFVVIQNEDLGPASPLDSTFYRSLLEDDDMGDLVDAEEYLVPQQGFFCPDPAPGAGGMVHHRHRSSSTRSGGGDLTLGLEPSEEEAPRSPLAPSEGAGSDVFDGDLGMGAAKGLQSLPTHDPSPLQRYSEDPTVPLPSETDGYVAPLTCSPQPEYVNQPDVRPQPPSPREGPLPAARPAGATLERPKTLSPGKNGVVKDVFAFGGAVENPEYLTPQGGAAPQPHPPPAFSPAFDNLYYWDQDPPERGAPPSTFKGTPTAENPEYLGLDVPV
Protocol: as §1
as §2, with “Ba/F3-EGFR-V769_D770 insASV, Ba/F3-EGFR-D770_N771 insNPG, Ba/F3-EGFR-N771_P772 insH, Ba/F3-EGFR-H773_V774 insNPH, Ba/F3-EGFR-D770_N771 insSVD C797S, Ba/F3-EGFR-E746_A750del C797S, Ba/F3-EGFR-L858R C797S, Ba/F3-EGFR L861Q and Ba/F3-ERBB2-A775_G776insYVMA (Ba/F3-vector-control).” for “Ba/F3-EGFR-WT.”

PC9 cells (EGFRex19del) = assay: PC9 cell proliferation, Cell Titer Glo, 72 h; settings: Homo sapiens
Protocol: (§6) PC9 cells were purchased from ATCC. 400 PC9 cells per well were seeded in growth medium (DMEM, 10% FCS) in a 384-well plate (CORNING #3571). Seed reference plate for time zero determination on the same day. All plates were incubated overnight at 37° C. After 24 hours, test compound were added in 7-step dilution using HP Compound printer and incubated at 37° C. for 72 h. After 3 days, 30 μL/well CTG solution (Promega Cell Titer Glo solution; catalog #G755B and G756B) were added to each well, incubated for 30 minutes and the plate were read on PheraStar. Proliferation is calculated after subtracting time zero luminescence values from day 4 values and comparing to untreated wells. The IC50 values were determined using the four parameter fit.

[9] = test system: HCC-827 cells (EGFRex19del); assay: HCC-827 cell proliferation, Cell Titer Glo, 72 h; settings: Homo sapiens
Protocol: as §6, with “HCC-827 cells” for “PC9 cells”, “[…]” for “400 PC9”, “medium (RPMI1640,” for “medium (DMEM,”, “wells.” for “wells. The IC50 values were determined using the four parameter fit.”
The IC50 values were determined using the four parameter fit.

[10] = Table 10, classical activating and uncommon EGFR mutations, read-out: BA/F3 (EGFR E746_A750del) IC50
[11] = Table 10, classical activating and uncommon EGFR mutations
[12] = PC-9, 72 h, Table 12, several values per example
[13] = HCC827, 72 h, Table 12, several values per example

GI50 [1] [nM] | GI50 [3] [nM] | GI50 [4] [nM] | IC50 (Ba/F3-EGFR L861Q cells) [nM] | IC50 [5] [nM] | IC50 [6] [nM] | IC50 [7] [nM] | GI50 [8] [nM] | IC50 (PC9 cells (EGFRex19del); [12]) [nM] | IC50 [9, 13] [nM] | SMILES | IC50 ([2]; Table 8, without IL-3, 48 h, read-out: BA/F3 (EGFR del19/delREA (746-750) IC50)) [nM] | GI50 (Ba/F3-EGFR-L858R cells; Table 8, without IL-3, 48 h) [nM] | IC50 [2, 10] [nM] | GI50 (Ba/F3-EGFR-L858R cells; [11]) [nM] | IC50 (PC9 cells (EGFRex19del); PC-9, Table 12, several values per example) [nM] | IC50 ([9]; HCC827, Table 12, several values per example) [nM]
388 | – | – | – | – | – | – | – | – | – | COC(C)(C)COc1cnccc1-c1[nH]c2c(c1Nc1cccc(F)c1CC(F)F)C(=O)NCC2 [Example 23, 3-{[2-(2,2-difluoroethyl)-3-fluorophenyl]amino}-2-[3-(2-methoxy-2-methylpropoxy)pyridin-4-yl]-1,5,6,7-tetrahydro-4H-pyrrolo[3,2-c]pyridin-4-one] | 0.26 | 3.2 | – | – | – | –
– | 13.9 | 17.2 | 38 | 25.6 | 0.363 | 1.61 | 14.9 | 3.27 | < 3 | COc1c(F)cccc1Nc1c(-c2ccncc2OC[C@@H](C)OC)[nH]c2c1C(=O)NCC2 [Example 92, 3-(3-fluoro-2-methoxyanilino)-2-{3-[(2R)-2-methoxypropoxy]pyridin-4-yl}-1,5,6,7-tetrahydro-4H-pyrrolo[3,2-c]pyridin-4-one] | – | – | 0.375 | 1.31 | – | –
– | 10 | 15.1 | 21.4 | 17.2 | 0.543 | 1.06 | 21.7 | 10 | < 3 | COc1c(Cl)cccc1Nc1c(-c2ccncc2OC[C@@H]2CCCN2C)[nH]c2c1C(=O)NCC2 [Example 48, 3-(3-chloro-2-methoxyanilino)-2-(3-{[(2S)-1-methylpyrrolidin-2-yl]methoxy}pyridin-4-yl)-1,5,6,7-tetrahydro-4H-pyrrolo[3,2-c]pyridin-4-one] | – | – | 1.13 | 1.39 | – | –

SMILES | GI50 [1] [nM] | GI50 [3] [nM] | GI50 [4] [nM] | IC50 (Ba/F3-EGFR L861Q cells) [nM] | IC50 [5] [nM] | IC50 [6] [nM] | IC50 [7] [nM] | GI50 [8] [nM] | IC50 (PC9 cells (EGFRex19del); [12]) [nM] | IC50 [9, 13] [nM] | IC50 ([2]; Table 8, without IL-3, 48 h, read-out: BA/F3 (EGFR del19/delREA (746-750) IC50)) [nM] | GI50 (Ba/F3-EGFR-L858R cells; Table 8, without IL-3, 48 h) [nM] | IC50 [2, 10] [nM] | GI50 (Ba/F3-EGFR-L858R cells; [11]) [nM] | IC50 (PC9 cells (EGFRex19del); PC-9, Table 12, several values per example) [nM] | IC50 ([9]; HCC827, Table 12, several values per example) [nM]
COc1c(Cl)cccc1Nc1c(-c2ccncc2OC[C@@H]2CCCO2)[nH]c2c1C(=O)NCC2 [Example 66, 3-(3-chloro-2-methoxyanilino)-2-(3-{[(2S)-oxolan-2-yl]methoxy}pyridin-4-yl)-1,5,6,7-tetrahydro-4H-pyrrolo[3,2-c]pyridin-4-one] | – | 5.57 | 6.4 | 9.81 | 15.3 | 0.288 | 1.22 | 6.62 | – | – | – | – | < 0.15 | 0.685 | 0.944 | < 3

— patent publication US12403135B2, “4H-pyrrolo[3,2-c]pyridin-4-one derivatives” (Bayer Aktiengesellschaft, priority 2019, dated 2025)
